# Measured values from patent US20110028441A1, “NOVEL PHENYL-SUBSTITUTED PIPERAZINO-DIHYDROTHIENOPYRIMIDINES” (BOEHRINGER INGELHEIM INTERNATIONAL GMBH, priority 2007, published 2011).
# Biological target: PDE4B (Homo sapiens, UniProt Q07343)
# Experiment: Scintillation Proximity (SPA) Assay of PDE4B enzyme inhibition
# Format: biochemical
# Settings: read-out: % Inhibition PDE4B @ 1 μM
# Description: The inhibitions (in %) at 1 μM of the individual Example substances are included in the following Tables of Examples and were determined as follows:
# The Scintillation Proximity (SPA) Assays (GE Healthcare, No. TRKQ7090) make use of the different affinities of cyclic 3′-5′-adenosine monophosphate (cAMP, low affinity) and linear 5′-adenosine monophosphate (AMP, high affinity) for yttrium silicate scintillator beads. The cAMP specific phosphodiesterase (PDE) PDE4B cleaves the 3′-phosphoester bond of the tritium-labelled [H3]-cAMP to form the [H3]-5′-AMP. Because of its higher affinity for the scintillator beads this [H3]-AMP accumulates on the beads and causes scintillation events (flashes of light) which are measured in a Wallac Microbeta Scintillation Counter.
# The test starts with one hours incubation of [H3]-cAMP with the PDE4B enzyme in assay buffer at 30° C., once with the Example substance that is to be tested (in a concentration of 1 μM) and once without the Example substance that is to be tested. After this incubation the reaction is stopped by the addition of the beads. The beads are given an opportunity to settle over the next 45 minutes, then they are measured in the Scintillation Counter. If the substance is capable of inhibiting the enzymatic activity of the PDE4B, less [H3]-AMP is formed during the incubation phase and fewer scintillation events can be measured.
# PDE4B, sequence (Q07343 whole entry, species assumed): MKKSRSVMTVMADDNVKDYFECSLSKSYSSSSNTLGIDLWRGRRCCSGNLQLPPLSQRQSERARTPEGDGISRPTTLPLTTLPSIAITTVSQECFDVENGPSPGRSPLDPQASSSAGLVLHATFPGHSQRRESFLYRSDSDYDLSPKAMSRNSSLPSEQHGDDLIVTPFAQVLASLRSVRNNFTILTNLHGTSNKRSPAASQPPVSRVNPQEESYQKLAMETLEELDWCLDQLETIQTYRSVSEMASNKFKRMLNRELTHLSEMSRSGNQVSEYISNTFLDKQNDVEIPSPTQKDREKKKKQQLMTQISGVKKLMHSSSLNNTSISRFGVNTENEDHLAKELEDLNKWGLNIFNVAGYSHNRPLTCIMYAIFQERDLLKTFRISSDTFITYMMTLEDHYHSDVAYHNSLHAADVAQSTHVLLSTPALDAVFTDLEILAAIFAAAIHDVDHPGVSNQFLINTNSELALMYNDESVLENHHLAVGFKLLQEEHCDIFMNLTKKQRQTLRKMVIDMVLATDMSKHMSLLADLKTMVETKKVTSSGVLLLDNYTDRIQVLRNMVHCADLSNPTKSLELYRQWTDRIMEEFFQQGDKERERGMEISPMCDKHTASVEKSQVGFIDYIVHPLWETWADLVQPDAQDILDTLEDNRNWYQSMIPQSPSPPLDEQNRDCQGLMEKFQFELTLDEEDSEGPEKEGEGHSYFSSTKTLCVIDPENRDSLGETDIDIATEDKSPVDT
row,Compound,inhibition at 1 µM [%]
1,"Cc1cc(C)cc(N2CCN(c3nc4c(c(Nc5cccc(F)c5)n3)[S+]([O-])CC4)CC2)c1 (stereo not shown) [Example 100, {2-[4-(3,5-DIMETHYLPHENYL)-PIPERAZIN-1-YL]-5-OXO-6,7-DIHYDRO-5H-5λ^4-THIENO[3,2-D]PYRIMIDIN-4-YL}-(3-FLUOROPHENYL)-AMINE]",97
2,"CN1C[C@@H](Nc2nc(N3CCN(c4ccc(Cl)c(Cl)c4)CC3)nc3c2[S+]([O-])CC3)CCC1=O (stereo partly drawn) [Example 59, (S)-5-{2-[4-(3,4-DICHLOROPHENYL)-PIPERAZIN-1-YL]-5-OXO-6,7-DIHYDRO-5H-5λ^4-THIENO[3,2-D]PYRIMIDIN-4-YLAMINO}-1-METHYLPIPERIDIN-2-ONE]",96
3,"CN1C[C@@H](Nc2nc(N3CCN(c4cccc(F)c4)CC3)nc3c2[S+]([O-])CC3)CCC1=O (stereo partly drawn) [Example 37, (S)-5-{2-[4-(3-FLUOROPHENYL)-PIPERAZIN-1-YL]-5-OXO-6,7-DIHYDRO-5H-5λ^4-THIENO[3,2-D]PYRIMIDIN-4-YLAMINO}-1-METHYLPIPERIDIN-2-ONE]",97

# Same assay, conditions: test substance 1 μM; one hour incubation of [H3]-cAMP with PDE4B enzyme at 30° C.; read-out: % Inhibition PDE4B @ 1 μM
row,Compound,inhibition at 1 µM [%]
1,"[O-][S+]1CCc2nc(N3CCN(c4cccc(F)c4)CC3)nc(Nc3cccc(F)c3)c21 (stereo not shown) [Example 47, (3-FLUOROPHENYL)-{2-[4-(3-FLUOROPHENYL)-PIPERAZIN-1-YL]-5-OXO-6,7-DIHYDRO-5H-5λ^4-THIENO[3,2-D]PYRIMIDIN-4-YL}-AMINE]",96
2,"[O-][S+]1CCc2nc(N3CCN(c4ccccc4Cl)CC3)nc(NC3(CO)CC3)c21 (stereo not shown) [Example 7, (1-{2-[4-(2-chlorophenyl)-piperazin-1-yl]-5-oxo-6,7-dihydro-5H-5λ^4-thieno[3,2-d]pyrimidin-4-ylamino}-cyclopropyl)-methanol]",94
3,"Cc1cc(N2CCN(c3nc4c(c(NC(CO)C(C)C)n3)[S+]([O-])CC4)CC2)ccc1Cl [Example 54, (R)-2-{2-[4-(4-chloro-3-methylphenyl)-piperazin-1-yl]-5-oxo-6,7-dihydro-5H-5λ^4-thieno[3,2-d]pyrimidin-4-ylamino}-3-methylbutan-1-ol]",63
4,"[O-][S+]1CCc2nc(N3CCN(c4cccc(F)c4)CC3)nc(NC3CCOCC3)c21 (stereo not shown) [Example 42, {2-[4-(3-FLUOROPHENYL)-PIPERAZIN-1-YL]-5-OXO-6,7-DIHYDRO-5H-5λ^4-THIENO[3,2-D]PYRIMIDIN-4-YL}-(TETRAHYDROPYRAN-4-YL)-AMINE]",96
5,"CC(C)C(CO)Nc1nc(N2CCN(c3cccc(F)c3)CC2)nc2c1[S+]([O-])CC2 [Example 27, (R)-2-{2-[4-(3-FLUOROPHENYL)-PIPERAZIN-1-YL]-5-OXO-6,7-DIHYDRO-5H-5λ^4-THIENO[3,2-D]PYRIMIDIN-4-YLAMINO}-3-METHYLBUTAN-1-OL]",96
6,"[O-][S+]1CCc2nc(N3CCN(c4ccccc4Cl)CC3)nc(NC3CCOCC3)c21 (stereo not shown) [Example 19, {2-[4-(2-chlorophenyl)-piperazin-1-yl]-5-oxo-6,7-dihydro-5H-5λ^4-thieno[3,2-d]pyrimidin-4-yl}-(tetrahydropyran-4-yl)-amine]",95
7,"N#Cc1ccccc1N1CCN(c2nc3c(c(Nc4cccc(F)c4)n2)[S+]([O-])CC3)CC1 (stereo not shown) [Example 22, 2-{4-[4-(3-FLUOROPHENYLAMINO)-5-OXO-6,7-DIHYDRO-5H-5λ^4-THIENO[3,2-D]PYRIMIDIN-2-YL]-PIPERAZIN-1-YL}-BENZONITRILE]",97
8,"[O-][S+]1CCc2nc(N3CCN(c4ccccc4Cl)CC3)nc(Nc3cccc(F)c3)c21 (stereo not shown) [Example 24, {2-[4-(2-CHLOROPHENYL)-PIPERAZIN-1-YL]-5-OXO-6,7-DIHYDRO-5H-5λ^4-THIENO[3,2-D]PYRIMIDIN-4-YL}-(3-FLUOROPHENYL)-AMINE]",95
9,"CCC[C@H](CO)Nc1nc(N2CCN(c3ccc(Cl)c(C(F)(F)F)c3)CC2)nc2c1[S+]([O-])CC2 (stereo partly drawn) [Example 56, (R)-2-{2-[4-(4-chloro-3-trifluoromethylphenyl)-piperazin-1-yl]-5-oxo-6,7-dihydro-5H-5λ^4-thieno[3,2-d]pyrimidin-4-ylamino}-pentan-1-ol]",94
10,"Cc1cccc(N2CCN(c3nc4c(c(Nc5cccc(F)c5)n3)[S+]([O-])CC4)CC2)c1 (stereo not shown) [Example 50, (3-FLUOROPHENYL)-[5-OXO-2-(4-m-TOLYLPIPERAZIN-1-YL)-6,7-DIHYDRO-5H-5λ^4-THIENO[3,2-D]PYRIMIDIN-4-YL]-AMINE]",96
11,"[O-][S+]1CCc2nc(N3CCN(c4cccc(F)c4)CC3)nc(NC3(CO)CC3)c21 (stereo not shown) [Example 32, (1-{2-[4-(3-FLUOROPHENYL)-PIPERAZIN-1-YL]-5-OXO-6,7-DIHYDRO-5H-5λ^4-THIENO[3,2-D]PYRIMIDIN-4-YLAMINO}-CYCLOPROPYL)-METHANOL]",97
12,"[O-][S+]1CCc2nc(N3CCN(c4ccc(Cl)c(Cl)c4)CC3)nc(NC3(CO)CC3)c21 (stereo not shown) [Example 57, (1-{2-[4-(3,4-DICHLOROPHENYL)-PIPERAZIN-1-YL]-5-OXO-6,7-DIHYDRO-5H-5λ^4-THIENO[3,2-D]PYRIMIDIN-4-YLAMINO}-CYCLOPROPYL)-METHANOL]",96
13,"Cc1cccc(N2CCN(c3nc4c(c(NC(CO)C(C)C)n3)[S+]([O-])CC4)CC2)c1 [Example 30, (R)-3-METHYL-2-[5-OXO-2-(4-m-TOLYLPIPERAZIN-1-YL)-6,7-DIHYDRO-5H-5λ^4-THIENO[3,2-D]PYRIMIDIN-4-YLAMINO]-BUTAN-1-OL]",94
14,"CC(C)[C@H](CO)Nc1nc(N2CCN(c3ccccc3C#N)CC2)nc2c1[S+]([O-])CC2 (stereo partly drawn) [Example 2, 2-{4-[4-((R)-1-hydroxymethyl-2-methylpropylamino)-5-oxo-6,7-dihydro-5H-5λ^4-thieno[3,2-d]pyrimidin-2-yl]piperazin-1-yl}-benzonitrile]",92
15,"CN1C[C@@H](Nc2nc(N3CCN(c4ccccc4Cl)CC3)nc3c2[S+]([O-])CC3)CCC1=O (stereo partly drawn) [Example 14, (S)-5-{2-[4-(2-chlorophenyl)-piperazin-1-yl]-5-oxo-6,7-dihydro-5H-5λ^4-thieno[3,2-d]pyrimidin-4-ylamino}-1-methylpiperidin-2-one]",96
16,"COc1ccccc1N1CCN(c2nc3c(c(Nc4cccc(F)c4)n2)[S+]([O-])CC3)CC1 (stereo not shown) [Example 21, (3-FLUOROPHENYL)-{2-[4-(2-METHOXYPHENYL)-PIPERAZIN-1-YL]-5-OXO-6,7-DIHYDRO-5H-5λ^4-THIENO[3,2-D]PYRIMIDIN-4-YL}-AMINE]",96

# Further lines, results first:
row,inhibition at 1 µM [%],Compound
1,90,"Cc1cc(Cl)ccc1N1CCN(c2nc3c(c(N[C@@H](CO)C(C)C)n2)[S+]([O-])CC3)CC1 (stereo partly drawn) [Example 75, (R)-2-{2-[4-(4-CHLORO-2-METHYLPHENYL)-PIPERAZIN-1-YL]-5-OXO-6,7-DIHYDRO-5H-5λ^4-THIENO[3,2-D]PYRIMIDIN-4-YLAMINO}-3-METHYLBUTAN-1-OL]"
2,95,"[O-][S+]1CCc2nc(N3CCN(c4ccc(Cl)c(F)c4)CC3)nc(NC3(CO)CC3)c21 (stereo not shown) [Example 61, (1-{2-[4-(4-CHLORO-3-FLUOROPHENYL)-PIPERAZIN-1-YL]-5-OXO-6,7-DIHYDRO-5H-5λ^4-THIENO[3,2-D]PYRIMIDIN-4-YLAMINO}-CYCLOPROPYL)-METHANOL]"
3,96,"Cc1cc(Cl)ccc1N1CCN(c2nc3c(c(NC4CCOCC4)n2)[S+]([O-])CC3)CC1 (stereo not shown) [Example 98, {2-[4-(4-CHLORO-2-METHYLPHENYL)-PIPERAZIN-1-YL]-5-OXO-6,7-DIHYDRO-5H-5λ^4-THIENO[3,2-D]PYRIMIDIN-4-YL}-(TETRAHYDROPYRAN-4-YL)-AMINE]"
4,95,"[O-][S+]1CCc2nc(N3CCN(c4ccc(Cl)c(F)c4)CC3)nc(NC3CCOCC3)c21 (stereo not shown) [Example 62, {2-[4-(4-CHLORO-3-FLUOROPHENYL)-PIPERAZIN-1-YL]-5-OXO-6,7-DIHYDRO-5H-5λ^4-THIENO[3,2-D]PYRIMIDIN-4-YL}-(TETRAHYDROPYRAN-4-YL)-AMINE]"
5,94,"CC(C)C(CO)Nc1nc(N2CCN(c3ccc(Cl)c(F)c3)CC2)nc2c1[S+]([O-])CC2 [Example 60, (R)-2-{2-[4-(4-chloro-3-fluorophenyl)-piperazin-1-yl]-5-oxo-6,7-dihydro-5H-5λ^4-thieno[3,2-d]pyrimidin-4-ylamino}-3-methylbutan-1-ol]"
6,94,"[O-][S+]1CCc2nc(N3CCN(c4ccc(Cl)cc4F)CC3)nc(NC3CCOCC3)c21 (stereo not shown) [Example 107, {2-[4-(4-CHLORO-2-FLUOROPHENYL)-PIPERAZIN-1-YL]-5-OXO-6,7-DIHYDRO-5H-5λ^4-THIENO[3,2-D]PYRIMIDIN-4-YL}-(TETRAHYDROPYRAN-4-YL)-AMINE]"
7,94,"Cc1cc(Cl)ccc1N1CCN(c2nc3c(c(Nc4cccc(F)c4)n2)[S+]([O-])CC3)CC1 (stereo not shown) [Example 67, {2-[4-(4-CHLORO-2-METHYLPHENYL)-PIPERAZIN-1-YL]-5-OXO-6,7-DIHYDRO-5H-5λ^4-THIENO[3,2-D]PYRIMIDIN-4-YL}-(3-FLUOROPHENYL)-AMINE]"
8,96,"[O-][S+]1CCc2nc(N3CCN(c4ccc(Cl)c(Cl)c4)CC3)nc(NC3CCOCC3)c21 (stereo not shown) [Example 58, {2-[4-(3,4-DICHLOROPHENYL)-PIPERAZIN-1-YL]-5-OXO-6,7-DIHYDRO-5H-5λ^4-THIENO[3,2-D]PYRIMIDIN-4-YL}-(TETRAHYDROPYRAN-4-YL)-AMINE]"
9,94,"[O-][S+]1CCc2nc(N3CCN(c4ccc(Cl)cc4F)CC3)nc(NC3(CO)CC3)c21 (stereo not shown) [Example 105, (1-{2-[4-(4-CHLORO-2-FLUOROPHENYL)-PIPERAZIN-1-YL]-5-OXO-6,7-DIHYDRO-5H-5λ^4-THIENO[3,2-D]PYRIMIDIN-4-YLAMINO}-CYCLOPROPYL)-METHANOL]"
